# ChEMBL document CHEMBL1201862, “PubChem BioAssay data set” (2004)
# Calls of active or inactive are those of the source.
# Legend:
# [1] = target: T1, Short transient receptor potential channel 4 (Mus musculus, UniProt Q9QUQ5); test: calcium entry via TRPC4 opening agents – cell-based, HEK293 TRPC4/mu-opioid, Fluo-4 calcium, dose response (AID 434937); assay type: functional
# T1 sequence (Q9QUQ5 whole entry): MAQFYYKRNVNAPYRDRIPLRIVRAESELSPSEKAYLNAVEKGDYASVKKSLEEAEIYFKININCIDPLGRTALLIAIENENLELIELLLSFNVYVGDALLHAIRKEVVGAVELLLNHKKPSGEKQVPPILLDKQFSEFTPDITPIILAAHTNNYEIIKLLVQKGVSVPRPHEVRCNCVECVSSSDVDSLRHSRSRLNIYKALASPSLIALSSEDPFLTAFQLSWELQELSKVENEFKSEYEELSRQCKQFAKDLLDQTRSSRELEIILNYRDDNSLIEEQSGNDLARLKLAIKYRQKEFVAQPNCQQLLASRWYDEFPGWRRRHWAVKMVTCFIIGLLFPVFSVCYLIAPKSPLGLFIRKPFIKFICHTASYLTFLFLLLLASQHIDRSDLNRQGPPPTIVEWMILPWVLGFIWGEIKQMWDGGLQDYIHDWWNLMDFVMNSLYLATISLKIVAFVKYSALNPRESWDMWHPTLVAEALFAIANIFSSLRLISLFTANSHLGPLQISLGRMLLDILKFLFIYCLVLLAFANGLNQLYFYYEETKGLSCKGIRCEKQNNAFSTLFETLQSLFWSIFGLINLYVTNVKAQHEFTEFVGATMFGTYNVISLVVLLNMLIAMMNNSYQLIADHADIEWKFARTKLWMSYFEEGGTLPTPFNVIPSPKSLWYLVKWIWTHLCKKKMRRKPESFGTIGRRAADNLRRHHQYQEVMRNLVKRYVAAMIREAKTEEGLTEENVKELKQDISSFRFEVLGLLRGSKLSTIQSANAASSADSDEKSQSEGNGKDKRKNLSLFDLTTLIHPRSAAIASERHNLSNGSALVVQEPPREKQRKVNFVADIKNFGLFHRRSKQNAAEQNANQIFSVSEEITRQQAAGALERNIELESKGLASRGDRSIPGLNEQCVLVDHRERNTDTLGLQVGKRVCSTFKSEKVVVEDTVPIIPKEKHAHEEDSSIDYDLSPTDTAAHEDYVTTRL
# [2] = reduction of Shn3 3'UTR-driven luciferase in osteoblasts – cell-based, Clone20 osteoblasts, firefly luciferase, cherry-picked, dose response (AID 624132); assay type: functional;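 further: firefly luciferase luminescence from reporter carrying the Shn3 3'UTR in osteoblasts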
# [3] = loss of viability in HepG2 cells – cell-based, CellTiter-Glo, cherry-picked, cytotoxicity control for Shn3 inhibitor project, dose response (AID 624134); assay type: functional
# [4] = non-specific 3'UTR reporter inhibition in Clone20-Shn3RL – cell-based, Renilla luciferase, cherry-picked, counter-screen for Shn3 inhibitor project, dose response (AID 624133); assay type: functional
# Nonstructural protein 1 = Nonstructural protein 1 (Influenza A virus, UniProt Q194T2); assay type: functional, Influenza A virus (A/California/07/2009(H1N1))
# Sequence of Nonstructural protein 1 (Q194T2 whole entry): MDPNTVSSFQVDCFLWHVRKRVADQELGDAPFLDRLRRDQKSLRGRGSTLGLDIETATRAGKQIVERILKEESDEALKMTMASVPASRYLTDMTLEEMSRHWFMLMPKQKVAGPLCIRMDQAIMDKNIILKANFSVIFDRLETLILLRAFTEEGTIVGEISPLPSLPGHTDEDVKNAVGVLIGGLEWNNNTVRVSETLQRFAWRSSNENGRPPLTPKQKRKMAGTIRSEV
# Streptococcus = test: GAS UMAA2166 growth inhibition – luminescence, BacTiterGlo, counter-screen for streptokinase expression inhibitor project, dose response (AID 1915); assay type: functional, organism-based;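 further: potency for reduction of bacterial viability or growth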
# [5] = target: Heat shock protein HSP 90-alpha (Homo sapiens, UniProt P07900); assay type: functional, organism-based
# [6] = test system: Streptococcus sp. 'group A'; test: Streptococcus pyogenes SK(-)GAS viability under kanamycin – luminescence, BacTiterGlo, confirmation, counter-screen for streptokinase expression inhibitor project, dose response (AID 1900); assay type: functional, organism-based
# [7] = blockers of HIV-1 ZM109 envelope-driven cell-cell fusion – HeLa effector, CEM target cells, luciferase, cherry-pick, dose response (AID 652058); assay type: functional, cell-based;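 further: luciferase signal from HIV-1 Env mediated cell-cell fusion of effector and target cells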
# [8] = off-target signal loss in HeLa-CEM21 co-culture – HeLa F-luc CTL cells, cherry-picked, counter-screen for HIV-1 Env fusion inhibitor project, dose response (AID 652040); assay type: functional, cell-based;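 further: potency for signal decrease marking cytotoxic or nonspecific inhibition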
# [9] = HIV-1 AD8 envelope cell-cell fusion blockers – cherry-pick, dose response (AID 652062); assay type: functional, cell-based;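 further: luciferase signal from cell-cell fusion driven by HIV-1 clade B AD8 Env; potency is for inhibitors of fusion seen as a drop in luminescence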
# [10] = blockers of HIV-1 envelope-mediated cell-cell fusion – cherry-pick, dose response (AID 652057); assay type: functional, cell-based
# P388/ADR = test: cells; assay type: functional; conditions: Mus musculus
# SN12K1 = test: cells; assay type: functional; conditions: Homo sapiens
# [11] = target: T2, Carboxy-terminal domain RNA polymerase II polypeptide A small phosphatase 1 (Homo sapiens, UniProt Q9GZU7); test: CTDSP1 inhibitors, concentration-response, biochemical, absorbance readout, ultra-high-throughput screen actives (AID 540297); assay type: functional
# T2 sequence (Q9GZU7 whole entry): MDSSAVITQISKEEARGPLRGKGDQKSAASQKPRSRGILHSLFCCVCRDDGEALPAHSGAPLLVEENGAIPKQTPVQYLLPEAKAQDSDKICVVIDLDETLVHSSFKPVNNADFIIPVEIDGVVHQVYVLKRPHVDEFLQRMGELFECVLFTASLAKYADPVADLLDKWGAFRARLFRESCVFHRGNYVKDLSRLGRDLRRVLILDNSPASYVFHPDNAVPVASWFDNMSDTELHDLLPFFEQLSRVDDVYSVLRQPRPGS
# Vero = test: cells; assay type: functional; conditions: Chlorocebus sabaeus
# Streptokinase A = target: T3, Streptokinase A (Streptococcus pyogenes serotype M1, UniProt P10520); test: viability-normalized secreted streptokinase activity reduction – plasminogen activation absorbance, OD405, dose response (AID 1914); assay type: functional, Streptococcus pyogenes M1 GAS;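 further: secreted streptokinase activity via plasminogen activation per viability signal from cell pellet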
# T3 sequence (P10520 whole entry): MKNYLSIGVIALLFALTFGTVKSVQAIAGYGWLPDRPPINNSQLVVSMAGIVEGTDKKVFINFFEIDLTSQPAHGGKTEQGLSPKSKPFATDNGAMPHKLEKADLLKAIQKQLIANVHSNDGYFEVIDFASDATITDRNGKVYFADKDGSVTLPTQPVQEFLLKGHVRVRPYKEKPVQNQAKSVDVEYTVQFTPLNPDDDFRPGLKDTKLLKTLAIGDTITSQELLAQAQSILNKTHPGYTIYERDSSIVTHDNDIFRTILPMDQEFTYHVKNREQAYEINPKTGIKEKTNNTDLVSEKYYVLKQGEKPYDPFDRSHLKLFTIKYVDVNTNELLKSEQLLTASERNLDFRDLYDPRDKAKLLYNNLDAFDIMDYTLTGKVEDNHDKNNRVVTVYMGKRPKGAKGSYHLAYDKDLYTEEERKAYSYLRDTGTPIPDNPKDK
# Cytochrome P450 1A2 = target: T4, Cytochrome P450 1A2 (Homo sapiens, UniProt P05177);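 further: PubChem cytochrome P450 panel assay, CYP1A2 panel member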
# T4 sequence (P05177 whole entry): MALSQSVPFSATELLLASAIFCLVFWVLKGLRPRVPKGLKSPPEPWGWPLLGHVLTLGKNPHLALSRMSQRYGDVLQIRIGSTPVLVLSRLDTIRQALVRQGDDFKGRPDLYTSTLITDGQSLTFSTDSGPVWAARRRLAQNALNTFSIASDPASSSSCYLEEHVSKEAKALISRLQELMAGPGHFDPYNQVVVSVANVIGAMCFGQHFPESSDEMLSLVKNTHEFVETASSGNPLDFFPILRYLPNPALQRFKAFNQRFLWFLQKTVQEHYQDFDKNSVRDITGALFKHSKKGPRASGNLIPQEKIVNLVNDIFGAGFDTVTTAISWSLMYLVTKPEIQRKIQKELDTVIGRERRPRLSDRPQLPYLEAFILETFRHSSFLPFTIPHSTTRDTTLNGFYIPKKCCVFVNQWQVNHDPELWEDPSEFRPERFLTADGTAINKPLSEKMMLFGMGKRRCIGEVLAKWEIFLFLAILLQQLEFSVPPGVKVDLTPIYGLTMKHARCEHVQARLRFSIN
# Cytochrome P450 2C9 = Cytochrome P450 2C9 (Homo sapiens, UniProt P11712)
# Sequence of Cytochrome P450 2C9 (P11712 whole entry): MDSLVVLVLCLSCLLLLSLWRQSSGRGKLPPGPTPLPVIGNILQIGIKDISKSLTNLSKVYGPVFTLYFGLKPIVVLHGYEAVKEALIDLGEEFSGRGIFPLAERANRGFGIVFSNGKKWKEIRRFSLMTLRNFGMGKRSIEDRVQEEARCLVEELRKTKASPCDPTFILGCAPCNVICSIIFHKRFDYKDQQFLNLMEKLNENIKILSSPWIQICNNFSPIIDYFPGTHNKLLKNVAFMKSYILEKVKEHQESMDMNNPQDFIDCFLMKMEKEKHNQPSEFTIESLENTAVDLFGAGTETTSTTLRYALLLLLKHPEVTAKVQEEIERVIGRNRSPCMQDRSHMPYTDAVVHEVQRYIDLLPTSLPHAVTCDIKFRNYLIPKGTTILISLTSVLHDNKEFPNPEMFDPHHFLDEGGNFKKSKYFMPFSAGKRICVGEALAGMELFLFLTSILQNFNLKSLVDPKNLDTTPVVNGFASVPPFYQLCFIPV
# [12] = viability of uninfected HEp-2 cells – cell-based, HTS, cytotoxicity control for RSV inhibitor project, dose response (AID 2410); assay type: functional; conditions: human respiratory syncytial virus
# Fatty acid synthase = Fatty acid synthase (Homo sapiens, UniProt P49327); test: inhibition of human FAS-TE enzyme activity – biochemical, kinetic fluorescence intensity, dose response (AID 624326); assay type: functional;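 further: rate of fluorescence rise from hydrolysis of a fluorogenic O-methyl fluorescein ester substrate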
# Sequence of Fatty acid synthase (P49327 whole entry): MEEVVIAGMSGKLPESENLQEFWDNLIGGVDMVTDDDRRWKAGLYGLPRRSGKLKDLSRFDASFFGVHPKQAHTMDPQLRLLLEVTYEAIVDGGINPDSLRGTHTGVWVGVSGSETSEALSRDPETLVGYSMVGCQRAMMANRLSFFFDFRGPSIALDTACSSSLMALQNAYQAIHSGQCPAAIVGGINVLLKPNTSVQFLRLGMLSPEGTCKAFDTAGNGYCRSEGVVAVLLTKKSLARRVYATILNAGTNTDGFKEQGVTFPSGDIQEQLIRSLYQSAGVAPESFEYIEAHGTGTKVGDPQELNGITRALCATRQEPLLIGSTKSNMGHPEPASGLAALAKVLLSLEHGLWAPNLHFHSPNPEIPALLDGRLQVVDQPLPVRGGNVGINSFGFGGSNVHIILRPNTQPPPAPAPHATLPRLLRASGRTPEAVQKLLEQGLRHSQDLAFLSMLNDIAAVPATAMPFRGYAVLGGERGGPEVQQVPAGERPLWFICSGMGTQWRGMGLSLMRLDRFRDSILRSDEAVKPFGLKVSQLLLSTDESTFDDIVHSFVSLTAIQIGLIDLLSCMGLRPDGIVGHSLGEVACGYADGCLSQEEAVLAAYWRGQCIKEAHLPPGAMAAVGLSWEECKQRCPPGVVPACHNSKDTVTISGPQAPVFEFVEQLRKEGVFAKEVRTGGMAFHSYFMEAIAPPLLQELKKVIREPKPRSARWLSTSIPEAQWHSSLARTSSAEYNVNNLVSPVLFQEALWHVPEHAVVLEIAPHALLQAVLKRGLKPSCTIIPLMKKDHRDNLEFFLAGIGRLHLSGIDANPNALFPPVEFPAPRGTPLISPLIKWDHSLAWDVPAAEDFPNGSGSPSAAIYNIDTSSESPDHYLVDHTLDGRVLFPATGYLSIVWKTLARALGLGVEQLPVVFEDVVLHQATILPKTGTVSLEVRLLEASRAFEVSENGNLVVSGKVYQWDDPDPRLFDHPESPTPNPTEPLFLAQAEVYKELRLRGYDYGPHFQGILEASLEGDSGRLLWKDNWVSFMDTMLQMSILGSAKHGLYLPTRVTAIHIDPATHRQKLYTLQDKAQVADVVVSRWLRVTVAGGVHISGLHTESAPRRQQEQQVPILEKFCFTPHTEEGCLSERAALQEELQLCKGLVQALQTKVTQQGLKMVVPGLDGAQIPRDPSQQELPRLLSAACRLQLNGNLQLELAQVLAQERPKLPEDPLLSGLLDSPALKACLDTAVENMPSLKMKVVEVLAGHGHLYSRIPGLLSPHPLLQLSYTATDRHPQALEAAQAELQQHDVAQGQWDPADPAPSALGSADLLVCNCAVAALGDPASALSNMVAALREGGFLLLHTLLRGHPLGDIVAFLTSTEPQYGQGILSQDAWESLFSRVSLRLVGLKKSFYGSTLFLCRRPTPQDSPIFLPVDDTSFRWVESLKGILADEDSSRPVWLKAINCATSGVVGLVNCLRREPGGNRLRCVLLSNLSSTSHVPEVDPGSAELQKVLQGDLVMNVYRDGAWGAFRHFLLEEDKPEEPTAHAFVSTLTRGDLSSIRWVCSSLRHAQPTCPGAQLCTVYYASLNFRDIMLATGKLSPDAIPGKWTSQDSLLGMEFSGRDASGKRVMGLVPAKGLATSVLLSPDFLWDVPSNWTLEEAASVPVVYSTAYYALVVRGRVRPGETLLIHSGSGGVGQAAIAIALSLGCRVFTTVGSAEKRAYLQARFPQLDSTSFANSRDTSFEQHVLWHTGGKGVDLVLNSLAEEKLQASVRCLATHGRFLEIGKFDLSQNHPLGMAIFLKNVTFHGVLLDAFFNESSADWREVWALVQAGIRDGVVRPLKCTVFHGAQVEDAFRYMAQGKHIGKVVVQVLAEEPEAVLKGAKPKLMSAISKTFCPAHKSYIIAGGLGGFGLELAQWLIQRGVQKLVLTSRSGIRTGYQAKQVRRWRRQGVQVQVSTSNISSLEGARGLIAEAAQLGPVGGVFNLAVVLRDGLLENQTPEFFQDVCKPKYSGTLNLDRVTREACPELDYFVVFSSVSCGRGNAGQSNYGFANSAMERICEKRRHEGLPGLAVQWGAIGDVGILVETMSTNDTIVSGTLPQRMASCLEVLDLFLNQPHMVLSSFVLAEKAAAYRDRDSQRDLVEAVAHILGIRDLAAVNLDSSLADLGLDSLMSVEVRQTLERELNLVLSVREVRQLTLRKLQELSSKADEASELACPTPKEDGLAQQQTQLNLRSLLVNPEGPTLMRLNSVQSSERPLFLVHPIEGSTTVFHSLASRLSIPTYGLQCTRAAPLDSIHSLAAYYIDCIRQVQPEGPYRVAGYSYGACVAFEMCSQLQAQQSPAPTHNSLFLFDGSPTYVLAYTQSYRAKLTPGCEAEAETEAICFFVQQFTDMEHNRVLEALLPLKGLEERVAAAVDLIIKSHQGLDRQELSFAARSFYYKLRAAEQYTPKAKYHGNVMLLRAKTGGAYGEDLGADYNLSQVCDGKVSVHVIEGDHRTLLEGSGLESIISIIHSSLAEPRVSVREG
# [13] = target: FAD-linked sulfhydryl oxidase ALR (Homo sapiens, UniProt P55789); test: ALR-catalysed DTT oxidation blockers – biochemical, H2O2 detection, luminescence, cherry-pick, dose response (AID 493248)
# Sequence of FAD-linked sulfhydryl oxidase ALR (P55789 whole entry): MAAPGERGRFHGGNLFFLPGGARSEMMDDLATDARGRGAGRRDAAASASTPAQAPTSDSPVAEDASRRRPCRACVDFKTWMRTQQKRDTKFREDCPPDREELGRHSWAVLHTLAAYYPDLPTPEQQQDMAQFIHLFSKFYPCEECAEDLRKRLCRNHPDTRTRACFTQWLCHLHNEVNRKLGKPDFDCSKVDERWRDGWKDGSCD
smiles,measurement,setting,value
CC1CN(c2ccc([N+](=O)[O-])c3cccnc23)CC(C)N1 (stereo not given),EC50,[1],0.335 µM (active)
c1coc(CN(Cc2ccco2)c2ncnc3c2oc2ccccc23)c1,AC50,[2],5.45 µM (active)
same,AC50,[3],67 µM (active)
same,AC50,[4],3.94 µM (active)
N#Cc1nc(-c2ccco2)oc1N1CCc2ccccc2C1,IC50,Nonstructural protein 1,> 100 µM (active)
Oc1ccc(/C=C/c2ccc3cccc(O)c3n2)cc1Br,EC50,Streptococcus,2.72 µM (active)
same,AC50,[5],1.35 µM (active)
same,EC50,[6],1.03 µM (active)
C=CCNc1ncnc2ccc(Br)cc12,AC50,[7],39.1 µM (active)
same,AC50,[8],5.9 µM (active)
same,AC50,[9],6.46 µM (active)
same,AC50,[10],4.53 µM (active)
O=c1c(Cc2ccccc2)c(O)ccn1CCc1c[nH]cn1,EC50,[1],3.76 µM (active)
O=S(=O)(NCc1ccncc1)c1ccc(F)c(F)c1,AC50,[2],2.09 µM (active)
same,AC50,[3],54.7 µM (active)
same,AC50,[4],1.2 µM (active)
CCOC(=O)C1(Cc2cccc(F)c2)CCN(Cc2cnn(CC)c2)CC1,EC50,[1],0.668 µM (active)
CC(=O)Oc1c(OC(C)=O)c(-c2ccc(O)c(O)c2)c(O)c(O)c1-c1ccc(O)cc1,GI50,P388/ADR,20.7 µM (inactive)
same,GI50,SN12K1,> 100 µM (inactive)
O=C(N/N=C/c1cc(Br)c(Br)o1)c1cc2ccccc2o1,IC50,[11],5.65 µM (active)
Nc1nc(N)nc(-c2ccccn2)n1,IC50,Nonstructural protein 1,19.9 µM (active)
Cc1ccc2oc(=O)c3cc(C(=O)NCCCN4CCCC(C)C4)sc3c2c1 (stereo not given),CC50,Vero,> 25 µM (active)
O=C(OCc1nnc(-c2ccccc2)o1)c1ccc(S(=O)(=O)NCc2ccco2)cc1,IC50,[11],13.4 µM (active)
CCCCCCc1nc2ccccc2c(=O)n1NC(=O)c1c(O)c2c(n(CC(C)C)c1=O)CCCC2,EC50,Streptococcus,> 150 µM (not active)
same,AC50,[7],69.4 µM (active)
same,EC50,Streptokinase A,> 150 µM (not active)
same,AC50,Cytochrome P450 1A2,15.8 µM (inconclusive)
same,AC50,Cytochrome P450 2C9,0.708 µM (inconclusive)
same,EC50,[6],84.9 µM (active)
same,AC50,[8],4.42 µM (active)
same,AC50,[10],22.8 µM (active)
O=C1C(NS(=O)(=O)c2cccs2)=C(N2CCN(c3cccc(C(F)(F)F)c3)CC2)C(=O)c2ccccc21,IC50,Nonstructural protein 1,19.6 µM (active)
same,EC50,Streptococcus,13.5 µM (active)
same,EC50,Streptokinase A,> 150 µM (not active)
same,EC50,[6],7.31 µM (active)
same,CC50,[12],12.4 µM (active)
CCc1nc2c(OCc3ccc(C(F)(F)F)cc3)cccn2c1N(C=O)Cc1ccc(OC)cc1,IC50,Fatty acid synthase,9.21 µM (active)
CC[C@@]1(C(=O)OC)N[C@H](CN(C)C(=O)COc2ccccc2)[C@@H]2C(=O)N(Cc3ccccc3)C(=O)[C@@H]21,AC50,[7],1.53 µM (active)
same,AC50,[8],4.2 µM (active)
same,AC50,[9],3.82 µM (active)
same,AC50,[10],2.2 µM (active)
COc1ccc(C(=O)O/N=C2\C(=O)N(C)c3ccccc32)cc1,AC50,[5],1.1 µM (active)
O=C(C1CCCN(Cc2ccncc2)C1)N1CCc2ccccc2C1 (stereo not given),EC50,[1],0.188 µM (active)
N#C/C(=C/c1ccc(OC(=O)c2ccc(Br)s2)cc1)c1nc2ccccc2[nH]1,IC50,[11],1.82 µM (active)
Cc1csc(NC(=O)CSc2sc3c(O)cc(O)nc3c2C#N)n1,IC50,[11],5.14 µM (active)
N#C/C(=C/C1=C(N2CCOCC2)C(=C/c2ccccc2)/CC1)C(=O)Nc1ccccc1F,IC50,Nonstructural protein 1,3.83 µM (active)
COC(=O)/C=C/S(=O)(=O)c1ccc(NC(C)=O)cc1,AC50,[13],0.118 µM (active)
same,AC50,[2],7.3 µM (active)
same,AC50,[3],42.2 µM (active)
same,AC50,[4],14.2 µM (active)
Cc1ccc(-n2cc(CNC(C)Cc3cnccn3)c(-c3cccc(C)c3)n2)cc1 (stereo not given),EC50,[1],5.96 µM (active)
CCN1CCN(c2ccc(S(=O)(=O)N3CCOCC3)cc2NC(=O)c2ccccc2OC(F)F)CC1,EC50,[1],0.299 µM (active)
COc1ccc(S(=O)(=O)N(C)C)cc1NC(=O)C1CCN(c2ncnc3sc(C)c(C)c23)CC1,AC50,[2],9.21 µM (active)
same,AC50,[3],> 70 µM (inactive)
same,AC50,[4],18.9 µM (active)
